Key:
Plasma stability (Rat) = type: in vitro ADME
Procedure: Plasma stability of disclosed compounds was investigated. The following table indicates the percent of compound remaining after 60 minutes.

[1] = test system: Sciatic nerve chronic constriction nerve injury; assay: Bennett nerve injury assay (mechanical analgesia, paw withdrawal threshold); type: in vivo, Sprague Dawley rats
Procedure: The Bennett model of mechanical analgesia is used to assess the analgesic effects of compounds as measured by paw withdrawal threshold. Bennett G J, Xie Y K, “A peripheral mononeuropathy in rat that produces disorders of pain sensation like those seen in man,” Pain 33:87-107, 1988. […] Vehicle animals receive the surgery and then receive vehicle rather than test compound. Animals were tested 1 hr, 24 h and 1 wk post-test compound or vehicle administration.
Male 2-3 month old Sprague Dawley rats were used. Harlan was the supplier for all studies. Rats were housed in Lucite cages with aspen wood chip bedding, maintained on a 12:12 light:dark cycle (lights on at 5 AM), and given ad libitum access to Purina lab chow (USA) and tap water throughout the study.
Rats were anesthetized using inhaled isoflurane (2.5%). Sciatic nerve chronic constriction nerve injury surgery was performed as previously described (Bennett and Xie, 1988). An incision (˜1.5 cm in length) was made with a scalpel blade dorsally through skin on the right hind limb, parallel and posterior to femur. Using a small pointed hemostat, the biceps femoris and gluteus superficialis muscles were separated. Using curved blunt forceps, the common sciatic nerve was isolated and exposed. For the mechanical analgesia studies, the whole sciatic nerve was ligated. Using hemostats/forceps and chromic gut (5-0), the nerve was loosely ligated with a square knot; 3 ligatures, 1 mm apart were placed on the nerve. […] Testing occurred approximately 2 weeks post-surgery.
During testing, rats were acclimated to the surface of a suspended wire mesh grid (1 cm×1 cm, with the wire being 0.3 cm in diameter) for 15-20 min Starting from the smallest, each Von Frey filament was pressed perpendicularly to the plantar surface of the affected (ipsilateral) hind paw until slightly bent and then held for 6 second. If an obvious hind paw withdrawal or a flinching behavior immediately after the withdrawal of the filament was not observed, the next larger filament was used in the same manner. In case of a response, a lower filament was used. This was repeated until six responses were collected.
For all studies, animals were baselined prior to study start to test for allodynia (defined as a paw withdrawal threshold under 5). A subset of animals was tested with gabapentin (150 mg/kg, PO) to ensure at least 50% analgesia. Once it was confirmed animals were ready for study initiation, animals were balanced across groups. All study investigators were blind to treatment conditions. Animals were dosed with 0.1, 1 or 10 mg/kg of test compound via oral gavage (PO), control sets of animals were dosed with gabapentin (150 mg/kg, PO) or vehicle (0.5% Na-CMC in 0.9% sterile saline, PO). Testing occurred 1 h post-dosing with animals retested 24 hrs and 1 week post-dosing. The percent analgesia calculations for each animal were made using the following equation: % analgesia=[(log(x)−y)/((log (z)−y)]*100, where x=the paw withdrawal threshold for the drug-treated animal in grams, y=the average of the log(x) values for the vehicle treated group, and z=the paw withdrawal threshold for naïve animals in grams (historical value of 15 used). The results for Compound AD, where the percentage of analgesia is measured at 1 hour, 24 hours, and 1 week after compound administration are as follows: for 0.1 mg/kg dose: 37.8% at 1 h, 29.7% at 24 h, and 63.1% at 1 wk; for 1 mg/kg dose: 48.8% at 1 h, 20.6% at 24 h, and 19.8% at 1 wk; and for 10 mg/kg dose: 70.3% at 1 h, 38.8% at 24 h, and 11.3% at 1 wk.

## CC(C)CN1[C@@]2(CC[C@@]13CNC3=O)CNC2=O [Compound AD, 5-isobutyl-2,5,8-triazadispiro[3.1.36.24]undecane-1,7-dione]
Plasma stability (Rat)
  Plasma (Rat): percent of compound remaining after 60 minutes: 88%
[1]; 0.1 mg/kg PO, 1 wk after administration
  percentage of analgesia: 63.1%
[1]; 0.1 mg/kg PO, 1 h after administration
  percentage of analgesia: 37.8%
[1]; 0.1 mg/kg PO, 24 h after administration
  percentage of analgesia: 29.7%
[1]; 1 mg/kg PO, 1 wk after administration
  percentage of analgesia: 19.8%
[1]; 1 mg/kg PO, 1 h after administration
  percentage of analgesia: 48.8%
[1]; 1 mg/kg PO, 24 h after administration
  percentage of analgesia: 20.6%
[1]; 10 mg/kg PO, 1 wk after administration
  percentage of analgesia: 11.3%
[1]; 10 mg/kg PO, 1 h after administration
  percentage of analgesia: 70.3%
[1]; 10 mg/kg PO, 24 h after administration
  percentage of analgesia: 38.8%

— US11028095B2, “Spiro-lactam and bis-spiro-lactam NMDA receptor modulators and uses thereof” (Aptinyx Inc., priority 2016, dated 2021)
